# Assay results reported in patent publication US4407804A, “Analgesic mixture of nalbuphine and indomethacin” (E. I. Du Pont de Nemours and Company, priority 1982, dated 1983).
# Tested on: phenyl-p-benzoquinone induced writhing in mice
# Test: Mouse antiphenylquinone (phenyl-p-benzoquinone induced) writhing test, oral
# Settings: for % mice blocked: 40 min
# Protocol: Male CF1 mice obtained from Charles River Breeding Laboratories, fasted for 16-22 hours and weighing 18-22 g at the time of testing are used throughout. All mice are dosed sequentially by the oral route with solutions of indomethacin and/or of nalbuphine hydrochloride. A dosing volume of 10 ml/kg is used for each sequential solution. […] All doses are coded and the test is performed under a code not known to the observer.
# A stock solution of indomethacin is prepared by dissolving dry indomethacin powder with an aqueous vehicle containing 2% by volume of Tween 80®, a pharmacological dispersant manufactured by Fisher Scientific Company and containing 100% polysorbate 80. All dosing solutions are prepared by dilution of the stock solution with the 2% Tween 80® vehicle; the vehicle control is 2% Tween 80®. All solutions are prepared fresh daily.
# Stock solutions of nalbuphine HCl are prepared by dissolving dry nalbuphine hydrochloride powder with distilled water. All dosing solutions are prepared by dilution of the stock solution with distilled water; the vehicle control is distilled water.
# As indicated above, the standard procedure based upon the prevention of phenyl-p-benzoquinone induced writhing in mice is utilized to detect and quantify the analgetic activity of compositions containing nalbuphine and indomethacin.
# Mice, intubated with various doses of nalbuphine hydrochloride, indomethacin, combined doses of nalbuphine hydrochloride and indomethacin,or vehicle, are injected intraperitoneally with a standard challenge dose of phenyl-p-benzoquinone 5 minutes prior to the designated observation period. […] For scoring purposes a "writhe" is indicated by whole body stretching or contraction of the abdomen; mice are observed 10 minutes for the presence or absence of writhing beginning 5 minutes after receiving the phenyl-p-benzoquinone dose. Each mouse is used only once, then discarded. […] This dosage as described herein is referred to as the ED50.
# In order to study the interaction between nalbuphine and indomethacin, 5 precise dosage ratios of nalbuphine hydrochloride and indomethacin were selected. Four or five coded doses of each selected combination were studied for analgesic effectiveness at 40 minutes using an experimental design which permits coding and complete randomization of the separate dosage forms tested. Altogether 35 separate dosage forms are used and each form is represented in each experimental session. The experiments are continued by running experimental sessions with an equal number of mice per group being tested until the total number, N, of mice tested per group is 60.
Compound,"% mice blocked (nalbuphine HCl 5.45 mg/kg, indomethacin 0) [%]","% mice blocked (nalbuphine HCl 10.9 mg/kg, indomethacin 0) [%]","% mice blocked (nalbuphine HCl 21.8 mg/kg, indomethacin 0) [%]","% mice blocked (nalbuphine HCl 43.6 mg/kg, indomethacin 0) [%]","% mice blocked (nalbuphine HCl 87.2 mg/kg, indomethacin 0) [%]","ED50 at 40 min, Nalbuphine HCl (amount of nalbuphine HCl in the ED50 dose) (mouse, N=60 mice/dose, nalbuphine HCl alone or as component of the fixed-ratio combination) [mg/kg]","% mice blocked (indomethacin 0.398 mg/kg, nalbuphine HCl 0) [%]","% mice blocked (indomethacin 0.795 mg/kg, nalbuphine HCl 0) [%]","% mice blocked (indomethacin 1.59 mg/kg, nalbuphine HCl 0) [%]","% mice blocked (indomethacin 3.18 mg/kg, nalbuphine HCl 0) [%]","ED50 at 40 min, Indomethacin (amount of indomethacin in the ED50 dose) (mouse, N=60 mice/dose, indomethacin alone or as component of the fixed-ratio combination) [mg/kg]"
"Oc1ccc2c3c1O[C@H]1[C@@H](O)CC[C@@]4(O)[C@@H](C2)N(CC2CCC2)CC[C@]314 [Nalbuphine, (-)-17-(cyclobutylmethyl)-4,5α-epoxymorphinan-3,6α,14-triol]",10.0,13.3,46.7,66.7,66.7,35.5,,,,,
"COc1ccc2c(c1)c(CC(=O)O)c(C)n2C(=O)c1ccc(Cl)cc1 [Indomethacin, 1-(p-chlorobenzoyl)-5-methoxy-2-methylindole-3-acetic acid]",,,,,,,18.3,30.0,78.3,85.0,1.08
